Test system: red blood cells (RBCs)
Test: Hemolysis test with diluted whole human blood
Format: cell-based
Details: 2 h, physiological temperature
Description: In the development of bioadhesives, it is important to assess hemocompatibility to evaluate whether the materials damage the blood cells. For this purpose, a standard hemolysis test was performed by exposing crosslinked hydrogels to diluted sodium citrate-treated whole human blood for 2 h at physiological temperature. The presence of a toxic effect was assessed visually by observing the appearance of a red-colored supernatant after centrifugation, indicating the release of hemoglobin from ruptured red blood cells (RBCs). […] After incubation with hydrogels, intact RBCs were efficiently sedimented through centrifugation, similar to the saline negative control. […] The disruption of RBCs was further assessed through colorimetric analysis, with the calculated percent hemolysis induced by the hydrogels presented in FIG. 6A(II). The hemolysis level of the hydrogels at all tested PDA concentrations remained below the acceptable limit (≤5%).

## Triton X-100
  supernatant colour after centrifugation (visual hemolysis): reddish supernatant

Reference: patent US20250276107A1, “HYDROGEL SYSTEMS AND METHODS FOR TREATING FISTULA AND OTHER INDICATIONS” (Terasaki Institute for Biomedical Innovation, priority 2024, published 2025)
